How the values were obtained:
[1] = Clearance from the kidneys after administration to mice; type: in vivo, BALB/c mice; settings: administered to balb/s mice; Cu complex
Text: For example, the functional group of R^5 may be hydrophobic or may be hydrophilic. Having a hydrophobic entity will encourage clearance of a compound of the present invention that is complexed with a metal ion or metal ion radionuclide through the liver, while a hydrophilic entity will predominantly clear through the kidney.

[2] = 64Cu radiolabelling at room temperature; kinetically inert complexes; cited from earlier work

SMILES	clearance / retention in the kidneys [1]	stability of 64Cu complex to excess EDTA challenge [2]
C1CNCC2CNCCNCC(CN1)CNCCNC2.[Cu+2] [Cu-sar]	retained for a relatively longer period of time in the kidneys	
NC12CNCCNCC(N)(CNCCNC1)CNCCNC2.[Cu+2] [Cu-diamsar]	rapidly cleared from the kidneys	
Nc1ccc(CNC23CNCCNCC(N)(CNCCNC2)CNCCNC3)cc1 [Sarar, 1-N-(4-aminobenzyl)-3,6,10,13,16,19-hexaazabicyclo[6.6.6]eicosane-1,8-diamine]		stable to excess EDTA challenge

Reference: patent US11535623B2, “Cryptate compounds” (Australian Nuclear Science and Technology Organisation, priority 2011, dated 2022)
